# Measurements reported in ChEMBL document CHEMBL1275542, “Characterization of TolC efflux pump proteins from Pasteurella multocida” (2008).
# Legend:
# Assay type in all cases: functional
# Pasteurella multocida [1] = assay: Antibacterial activity against Pasteurella multocida AL435 after 24 hrs by broth dilution method
# Pasteurella multocida [2] = assay: Antibacterial activity against TolC deficient Pasteurella multocida pm0527 after 24 hrs by broth dilution method
# Pasteurella multocida [3] = assay: Antibacterial activity against Pasteurella multocida pm0527 after 24 hrs by broth dilution method
# Pasteurella multocida [4] = assay: Ratio of MIC for Pasteurella multocida AL435 to MIC for TolC deficient Pasteurella multocida pm0527
# Pasteurella multocida [5] = assay: Antibacterial activity against TolC deficient Pasteurella multocida pm1980 after 24 hrs by broth dilution method
# Pasteurella multocida [6] = assay: Antibacterial activity against Pasteurella multocida pm1980 after 24 hrs by broth dilution method
# Pasteurella multocida [7] = assay: Ratio of MIC for Pasteurella multocida AL435 to MIC for TolC deficient Pasteurella multocida pm1980
Compound,"MIC (Pasteurella multocida [1]; AL435, 24 h) [µg/mL]","MIC (Pasteurella multocida [2]; pm0527, 24 h) [µg/mL]","MIC (Pasteurella multocida [3]; pm0527, 24 h) [µg/mL]",Ratio (Pasteurella multocida [4]),"MIC (Pasteurella multocida [5]; pm1980, 24 h) [µg/mL]","MIC (Pasteurella multocida [6]; pm1980, 24 h) [µg/mL]",Ratio (Pasteurella multocida [7]),MIC (Pasteurella multocida [1]) [µg/mL],MIC (Pasteurella multocida [2]) [µg/mL],MIC (Pasteurella multocida [3]) [µg/mL],MIC (Pasteurella multocida [5]) [µg/mL],MIC (Pasteurella multocida [6]) [µg/mL]
CN(C)c1ccc2cc3ccc(N(C)C)cc3nc2c1 [ACRIDINE ORANGE],30,0.234,15,128,30,30,1,,,,,
CC(C)(O/N=C(\C(=O)N[C@@H]1C(=O)N2C(C(=O)[O-])=C(C[n+]3ccccc3)CS[C@H]12)c1csc(N)n1)C(=O)O [CEFTAZIDIME],250,15.6,7.8,16,31.2,31.2,8,,,,,
O=C(N[C@H](CO)[C@H](O)c1ccc([N+](=O)[O-])cc1)C(Cl)Cl [CHLORAMPHENICOL],1,0.5,1,2,1,1,1,,,,,
C[C@@H]1C[C@@H]([C@H](O)CC2CC(=O)NC(=O)C2)C(=O)[C@@H](C)C1 [CYCLOHEXIMIDE],500,250,500,2,500,500,1,,,,,
O=P1(N(CCCl)CCCl)NCCCO1 (centres undefined) [CYCLOPHOSPHAMIDE ANHYDROUS],4000,4000,2000,1,2000,2000,2,,,,,
C[C@H](CCC(=O)O)[C@H]1CC[C@H]2[C@@H]3CC[C@@H]4C[C@H](O)CC[C@]4(C)[C@H]3C[C@H](O)[C@]12C [DEOXYCHOLIC ACID],625,625,312,1,625,625,1,,,,,
O[C@@H](CS)[C@@H](O)CS [DITHIOTHREITOL],4000,2000,2000,2,2000,4000,2,,,,,
CC[C@H]1OC(=O)[C@H](C)[C@@H](O[C@H]2C[C@@](C)(OC)[C@@H](O)[C@H](C)O2)[C@H](C)[C@@H](O[C@@H]2O[C@H](C)C[C@H](N(C)C)[C@H]2O)[C@](C)(O)C[C@@H](C)C(=O)[C@H](C)[C@@H](O)[C@]1(C)O [ERYTHROMYCIN],3.8,0.47,1.88,8,1.88,1.88,2,,,,,
CCCCc1ccc(C(=O)O)nc1 [FUSARIC ACID],100,50,50,2,50,100,2,,,,,
CN(C)c1ccc(C(=C2C=CC(=[N+](C)C)C=C2)c2ccc(N(C)C)cc2)cc1.[Cl-] [GENTIAN VIOLET],12.5,3.12,6.25,4,12.5,12.5,1,,,,,
CC[n+]1c(-c2ccccc2)c2cc(N)ccc2c2ccc(N)cc21.[Br-] [HOMIDIUM BROMIDE],20,5,10,4,10,10,2,,,,,
CCC[C@@H]1C[C@@H](C(=O)N[C@@H]([C@H]2O[C@H](SC)[C@H](O)[C@@H](O)[C@H]2O)[C@@H](C)O)N(C)C1 [LINCOMYCIN],100,25,25,4,100,50,1,,,,,
CCn1cc(C(=O)O)c(=O)c2ccc(C)nc21 [NALIDIXIC ACID],25,25,25,1,25,12.5,1,,,,,
CO[C@@H]1[C@@H](OC(N)=O)[C@@H](O)[C@H](Oc2ccc3c(O)c(NC(=O)c4ccc(O)c(CC=C(C)C)c4)c(=O)oc3c2C)OC1(C)C [NOVOBIOCIN],40,2.5,40,16,20,40,2,,,,,
CO[C@H]1/C=C/O[C@@]2(C)Oc3c(C)c(O)c4c(O)c(c(/C=N/N5CCN(C)CC5)c(O)c4c3C2=O)NC(=O)/C(C)=C\C=C\[C@H](C)[C@H](O)[C@@H](C)[C@@H](O)[C@@H](C)[C@H](OC(C)=O)[C@@H]1C [RIFAMPIN],50,0.1,0.2,512,0.78,0.78,64,,,,,
Nc1ccc(S(=O)(=O)Nc2nccs2)cc1 [SULFATHIAZOLE],2500,625,1250,4,2500,2500,1,,,,,
COc1cc(Cc2cnc(N)nc2N)cc(OC)c1OC [TRIMETHOPRIM],8,0.25,0.5,32,2,1,4,,,,,
CN[C@H](CC(C)C)C(=O)N[C@H]1C(=O)N[C@@H](CC(N)=O)C(=O)N[C@H]2C(=O)N[C@H]3C(=O)N[C@H](C(=O)N[C@H](C(=O)O)c4cc(O)cc(O)c4-c4cc3ccc4O)[C@H](O)c3ccc(c(Cl)c3)Oc3cc2cc(c3O[C@@H]2O[C@H](CO)[C@@H](O)[C@H](O)[C@H]2O[C@H]2C[C@](C)(N)[C@H](O)[C@H](C)O2)Oc2ccc(cc2Cl)[C@H]1O [VANCOMYCIN],1000,125,250,8,250,250,4,,,,,
GENTAMICIN,,,,4,,,0.5,20,5,20,40,40
NEOMYCIN SULFATE,,,,1,,,0.125,125,125,125,1000,500
POLYMYXIN B,,,,4,,,1,12.5,3.12,6.25,12.5,6.25
SPIRAMYCIN,,,,2,,,1,25,12.5,25,25,25
